The source of these data is patent US20120309705A1, “NOVEL 3'-DEOXY-3'-METHYLIDENE-BETA-L-NUCLEOSIDES” (priority 2009, published 2012).

Series [1] is described as follows: Cytotoxicity in MT-4 cells (MTS). The settings on record: human. The series is classed as cell-based. As to the method: MT-4 cells was added to 96-well microtiter plates in a volume of 50 μl (1×10^5 cells/mL). The cell medium contains the test compounds with the concentrations ranging 0.01 μM-31 μM. The cells were incubated at 37° C. with 5% CO2. At assay termination (6 days), 20-25 μL of MTS reagent is added per well and the microtiter plates are then incubated for 4-6 hrs at 37° C. with 5% CO2. The plate was read spectrophotometrically to assess cell viability. The cytotoxicity was calculated based on the cell viability in comparison with the control.

The next series has as its system HIV-1IIIB. Kind of series: Anti-HIV activity in MT-4 cells (cytopathic effect reduction). The series is classed as cell-based. The settings on record: Human immunodeficiency virus 1, MT4, 144 h, 6 days post-infection. As to the method: MT-4 cells were used for analyzing compounds of the invention for their HIV inhibitory activities. On the day preceding the assay, the cells were split 1:2 to assure they were in an exponential growth phase at the time of infection. Total cell number and percent viability determinations were performed using a hemacytometer and trypan blue exclusion. Cell viability must be greater than 95% for the cells to be utilized in the assay. The cells were re-suspended at 1×10^5 cells/mL in tissue culture medium and added to control or drug-containing 96-well microtiter plates in a volume of 50 μL. The viruses used for this assay were HIV-1IIIB. For each assay, a pre-titered aliquot of virus was removed from the freezer (−80° C.) and allowed to thaw slowly to room temperature in a biological safety cabinet. The virus was re-suspended and diluted into tissue culture medium such that the amount of virus added to each well in a volume of 50 μL was the amount determined to give between 85 to 95% cell killing at 6 days post-infection. The multiplicity of infection of these assays was approximately 0.01 and the volume added to the well of the microtiter plates was 50 μL. At assay termination (6 days post-infection), 20-25 μL of MTS reagent 3-(4,5-dimethylthiazol-2-yl)-5-(3-carboxymethoxyphenyl)-2-(4-sulfophenyl)-2H-tetrazolium (MTS; CellTiter 96 Reagent, Promega) was added per well and the microtiter plates were incubated for 4-6 hrs at 37° C., 5% CO2. Adhesive plate sealers were used in place of the lids, the sealed plate is inverted several times to mix the soluble formazan product. The plate was read spectrophotometrically at 490/650 nm with plate reader. Anti-HIV activity was calculated based on the Cytopathic Effect Reduction (%).
In general terms: Cytopathic effects are the visible damage that an infection or toxin causes in cultured cells.

The nature of series [2]: Cytotoxicity in HepG2 cells (MTT). The settings on record: human. The series is classed as cell-based. The method, then:
HepG2 cells were seeded on 96-well plates at a density of 1×10^4 cells/well in 100 μl DMEM supplemented with 10% FBS, 100 U/ml penicillin/streptomycin and 2 mM L-glutamine. After 20 hours of incubation at 37° C. with 5% CO2, the medium was removed and replaced with fresh medium containing test compounds with the concentrations ranging 4.7-300 μM. The cells were incubated for 24 hours at 37° C. with 5% CO2. The medium was removed and replaced with 100 μl/well MTT (Sigma) in HBSS (0.5 mg/ml). After the incubation for 2 hours on gentle shake at 37° C., 100 μl/well of MTT lysis buffer was added to the wells and plates were covered and left over night to dissolve formazan crystals. Absorbance was measured at 570-630 nm in ELISA reader. The cytotoxicity was calculated based on the cell viability in comparison with the control.

The next series deals with HBV. The experiment in a line: Anti-HBV activity in HepG2.2.15 cells (HBV DNA, TaqMan PCR). The series is classed as cell-based. The following applies: Hepatitis B virus, 144 h, 6 days, HBV DNA in supernatant, read-out: Anti-HBV activity IC50 (HepG 2215). As to the method: Human hepatoma cells with HBV (HepG2.2.15 cells) were used for the analyzing compounds of the invention for their HBV inhibitory activities. HepG2.2.15 cells were plated in 96-well microtiter plates. Only the interior wells were utilized to reduce “edge effects” observed during cell culture; the exterior wells were filled with complete medium to help minimize sample evaporation. After 16-24 hours the confluent monolayer of HepG2.2.15 cells were washed and the medium was replaced with complete medium containing various concentrations of a test compound in triplicate (compounds tested at 6 concentrations). Lamivudine was used as the positive control, while media alone was added to cells as a negative control. Three days later the culture medium was replaced with fresh medium containing the appropriately diluted drug. Six days following the initial administration of the test compound, the cell culture supernatant was collected, treated with pronase and then used in a real-time quantitative TaqMan PCR assay. The PCR-amplified HBV DNA was detected in real-time by monitoring increases in fluorescence signals that result from the exonucleolytic degradation of a quenched fluorescent probe molecule that hybridized to the amplified HBV DNA. For each PCR amplification, a standard curve was simultaneously generated using dilutions of purified HBV DNA. Anti-HBV activity was calculated from the reduction in HBV DNA levels. CellTiter-96 kit (Promega) is employed to measure cell viability in the same assay to confirm that the inhibition was not due to cytotoxicity in HepG 2 cells.

The next series concerns the target mutation rtA181V (Hepatitis B virus genotype D subtype ayw, UniProt P03156, A516V). The following applies: cited from earlier work.
The target in series [3] is rtN236T in HBV polymerase (Hepatitis B virus genotype D subtype ayw, UniProt P03156, N571T). The settings on record: cited from earlier work.
Sequence of rtN236T in HBV polymerase (P03156 whole entry N571T): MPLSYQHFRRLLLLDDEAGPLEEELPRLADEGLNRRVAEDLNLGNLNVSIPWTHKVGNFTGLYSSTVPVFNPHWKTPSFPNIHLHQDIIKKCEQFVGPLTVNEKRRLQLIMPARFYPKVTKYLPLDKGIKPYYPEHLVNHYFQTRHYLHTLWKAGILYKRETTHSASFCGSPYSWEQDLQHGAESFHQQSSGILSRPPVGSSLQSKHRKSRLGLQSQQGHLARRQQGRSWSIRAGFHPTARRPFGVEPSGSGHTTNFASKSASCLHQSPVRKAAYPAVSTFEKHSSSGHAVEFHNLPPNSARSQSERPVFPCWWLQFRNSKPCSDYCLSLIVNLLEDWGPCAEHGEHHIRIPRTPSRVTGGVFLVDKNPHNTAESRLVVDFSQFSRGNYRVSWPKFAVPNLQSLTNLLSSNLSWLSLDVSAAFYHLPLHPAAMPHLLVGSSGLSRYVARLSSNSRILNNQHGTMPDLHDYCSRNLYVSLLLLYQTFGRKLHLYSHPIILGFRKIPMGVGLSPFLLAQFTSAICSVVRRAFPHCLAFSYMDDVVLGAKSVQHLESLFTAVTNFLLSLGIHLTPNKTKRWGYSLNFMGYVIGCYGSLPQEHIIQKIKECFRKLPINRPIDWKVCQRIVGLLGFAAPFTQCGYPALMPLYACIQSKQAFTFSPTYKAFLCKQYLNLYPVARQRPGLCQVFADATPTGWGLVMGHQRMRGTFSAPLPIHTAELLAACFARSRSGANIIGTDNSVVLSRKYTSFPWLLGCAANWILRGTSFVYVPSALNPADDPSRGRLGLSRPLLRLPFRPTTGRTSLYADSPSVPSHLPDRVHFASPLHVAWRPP
Series [4] has as its system mutants resistant to lamivudine. The settings on record: cited from earlier work.

Each structure is given as a SMILES string.

Sequence of mutation rtA181V (P03156 whole entry A516V): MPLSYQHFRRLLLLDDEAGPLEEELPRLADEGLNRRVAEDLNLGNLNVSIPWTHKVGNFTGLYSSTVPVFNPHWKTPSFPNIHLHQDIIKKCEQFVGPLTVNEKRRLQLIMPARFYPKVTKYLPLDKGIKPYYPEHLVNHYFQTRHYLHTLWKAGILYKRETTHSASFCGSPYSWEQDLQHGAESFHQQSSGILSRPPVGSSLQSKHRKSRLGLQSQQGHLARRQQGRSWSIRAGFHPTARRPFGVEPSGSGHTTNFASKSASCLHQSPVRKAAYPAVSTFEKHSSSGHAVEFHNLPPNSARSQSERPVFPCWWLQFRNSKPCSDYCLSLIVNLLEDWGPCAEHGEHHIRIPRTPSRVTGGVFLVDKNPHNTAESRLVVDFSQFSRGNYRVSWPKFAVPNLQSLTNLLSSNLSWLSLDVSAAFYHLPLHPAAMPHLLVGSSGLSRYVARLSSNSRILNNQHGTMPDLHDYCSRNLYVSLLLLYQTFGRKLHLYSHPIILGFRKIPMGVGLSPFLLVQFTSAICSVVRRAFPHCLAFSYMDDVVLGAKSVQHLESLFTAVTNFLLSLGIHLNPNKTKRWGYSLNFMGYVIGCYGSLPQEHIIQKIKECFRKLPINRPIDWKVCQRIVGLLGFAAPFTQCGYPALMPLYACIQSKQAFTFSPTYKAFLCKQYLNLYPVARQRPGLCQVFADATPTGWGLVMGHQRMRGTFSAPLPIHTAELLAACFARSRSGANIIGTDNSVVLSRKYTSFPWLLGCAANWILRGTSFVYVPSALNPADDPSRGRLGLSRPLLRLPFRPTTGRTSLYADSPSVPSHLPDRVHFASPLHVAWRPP

Consider `C=C1C[C@@H](n2cnc3c(=O)[nH]c(N)nc32)O[C@H]1CO` [Compound 75, 9-(2,3-dideoxyl-3-methylidene-β-L-pentofuranosyl)guanine], for which the CC50 (in general, the concentration at which the toxic effect on the cells reaches its halfway point) at 6 days in series [1] was above 32 µM. For the same compound, in the series with HIV-1IIIB, the IC50 (in general, the midpoint of a concentration-inhibition curve) is above 32 µM.

`C=C1[C@H](CO)O[C@H](n2ccc(N)nc2=O)[C@H]1C` [Compound 57, 4-Amino-1-[(2S,3S,5R)-5-(hydroxymethyl)-3-methyl-4-methylenetetrahydrofuran-2-yl]pyrimidin-2(1H)-one] showed a CC50 at 24 h in series [2] above 300 µM.

For `C=C1[C@H](CO)O[C@H](n2ccc(N)nc2=O)[C@H]1O` [Compound 17, 1-(3-deoxy-3-methylidene-β-L-pentoribofuranosyl)cytosine], the 50% cytotoxic concentration (CC50) at 6 days in series [1] was above 32 µM. Also, the IC50 in the series with HIV-1IIIB was above 32 µM. The same compound showed a CC50 at 24 h in series [2] above 300 µM.

Turning to `C=C1C[C@@H](n2ccc(N)nc2=O)O[C@H]1CO` [Compound 10, 1-(2,3-dideoxyl-3-methylidene-β-L-pentofuranosyl)cytosine], the CC50 at 6 days in series [1] is above 32 µM. Also, the IC50 was 1 to 32 µM in the series on HIV-1IIIB and below 1 µM in the series on HBV. Also, in series [2], the CC50 at 24 h was above 300 µM.

Compound `C=C1[C@H](CO)O[C@H](n2ccc(N)nc2=O)[C@H]1F` [Compound 37, 1-[2-deoxy-2-(S)-fluoro-3-deoxy-3-methylidene-β-L-pentofuranosyl]cytosine] registered a CC50 at 6 days in series [1] above 32 µM. This compound also had an IC50 in the series on HIV-1IIIB above 32 µM. For the same compound, in series [2], the CC50 at 24 h is above 300 µM.

On to `Nc1ncnc2c1ncn2CCOCP(=O)(O)O` [adefovir], for which the activity loss result at mutation rtA181V is given as “about 33 fold”. In addition, in series [3], the loss of susceptibility entry is “about 10 fold”.

In turn, `C=C1C[C@@H](n2cc(F)c(N)nc2=O)O[C@H]1CO` [Compound 66, 1-(2,3-dideoxyl-3-methylidene-β-L-pentofuranosyl)-5-fluorocytosine] returned a CC50 at 24 h in series [2] above 300 µM. Also, the concentration for half-maximal inhibition (IC50) in the series with HBV is below 1 µM.

`C=C1C[C@@H](n2cc(C)c(=O)[nH]c2=O)O[C@H]1CO` [Compound 26, 1-(2,3-dideoxy-3-methylidene-β-L-pentofuranosyl)thymine] came in with a half-maximal cytotoxic concentration (CC50) at 6 days in series [1] above 32 µM. For the same compound, the results for the concentration for half-maximal inhibition (IC50) in the series with HIV-1IIIB and in the series with HBV were above 32 µM and below 1 µM, respectively. In addition, the CC50 at 24 h in series [2] is above 300 µM.

Regarding `C=C1C[C@@H](n2cnc3c(N)ncnc32)O[C@H]1CO` [Compound 71, 9-(2,3-dideoxyl-3-methylidene-β-L-pentofuranosyl)adenine], the CC50 at 24 h in series [2] was above 300 µM. In the series on HBV, the half-inhibitory concentration (IC50) was below 1 µM.

Consider `C=C1[C@H](CO)[C@@H](O)C[C@@H]1n1cnc2c(=O)[nH]c(N)nc21` [entecavir], for which, in series [4], the “cross-resistance of lamivudine-resistant mutants” value was “cross-resistance”.

For `C=C1[C@H](CO)O[C@H](n2ccc(N)nc2=O)[C@@H]1F` [Compound 47, 1-[2-deoxy-2-(R)-fluoro-3-deoxy-3-methylidene-β-L-pentofuranosyl]cytosine], the CC50 at 6 days in series [1] was above 32 µM. The compound also returned an IC50 with HIV-1IIIB above 32 µM. Also, in series [2], the CC50 at 24 h is above 300 µM.

With `Cc1cn([C@@H]2C[C@@H](O)[C@H](CO)O2)c(=O)[nH]c1=O` [telbivudine], in series [4], the “cross-resistance of lamivudine-resistant mutants” value is “cross-resistance”.

The compound `C=C1[C@H](CO)O[C@H](n2ccc(N)nc2=O)[C@@H]1O` [Compound 28, 1-(3-deoxy-3-methylidene-β-L-arabinopentofuranosyl)cytosine] had a CC50 at 6 days in series [1] above 32 µM. In addition, in the series on HIV-1IIIB, the IC50 was above 32 µM. Besides, in series [2], the CC50 at 24 h was above 300 µM.

The compound `C=C1C[C@@H](n2ccc(=O)[nH]c2=O)O[C@H]1CO` [Compound 8, 1-(2,3-dideoxyl-3-methylidene-β-L-pentofuranosyl)uracil] showed a CC50 at 6 days in series [1] above 32 µM. Moreover, the half-maximal inhibitory concentration (IC50) with HIV-1IIIB and with HBV was above 32 µM throughout. The 50% cytotoxic concentration (CC50) at 24 h in series [2] was above 32 µM.
